Experimental data: US7351732B2, “Cycloalkanedione derivatives, method for the production thereof and their pharmacological applications” (Schwarz Pharma S.L., priority 2002, dated 2008)

Key:
5-human HT1A receptor = molecular target: T1, 5-human HT1A receptor (Homo sapiens, UniProt P08908); assay: Test on adenylate cyclase in He-La cells (inhibition of forskolin stimulation); format: cell-based; settings: for EC50: inhibition of forskolin-stimulated adenylate cyclase, He-La cells transfected with 5-HT1A, read-out: CE50 (the source's name); for % Maximum inhibition: inhibition of the activation induced by forskolin
T1 construct: expressed in transfected cells; host or cells: HeLa cells
T1 sequence (P08908 1-422): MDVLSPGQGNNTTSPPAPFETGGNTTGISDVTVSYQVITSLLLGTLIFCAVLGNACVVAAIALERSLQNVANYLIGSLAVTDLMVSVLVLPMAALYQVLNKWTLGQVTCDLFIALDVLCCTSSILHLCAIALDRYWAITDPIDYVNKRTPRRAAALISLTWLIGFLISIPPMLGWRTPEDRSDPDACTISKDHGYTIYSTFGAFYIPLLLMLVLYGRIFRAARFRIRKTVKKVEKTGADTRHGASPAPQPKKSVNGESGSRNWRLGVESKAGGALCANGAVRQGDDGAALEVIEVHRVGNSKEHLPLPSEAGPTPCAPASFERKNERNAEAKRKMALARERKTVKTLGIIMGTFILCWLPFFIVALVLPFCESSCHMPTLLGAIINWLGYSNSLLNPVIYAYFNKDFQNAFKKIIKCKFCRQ
Text: The functional character of the new compounds was initially determined by studying their effect on adenylate cyclase in He—La cells transfected with the […], measuring their inhibiting effect on the stimulation of the enzyme induced by forskolin (Table 3 below).

5-HT7 receptors = molecular target: T2, 5-HT7 receptors (Rattus norvegicus, UniProt P32305); assay: Radioligand displacement, 5-HT7 receptors, [3H]-5-CT; format: binding; settings: [3H]-5-CT, rat hypothalamus; read-out: Ki ± E.E. 5-HT7
T2 construct: (e) 5-HT7 receptors, [^3H]-5-CT, rat hypothalamus; from tissue; host or cells: rat hypothalamus

hippocampal area CA1 = assay: Transient global ischemia model in gerbils; format: in vivo; settings: gerbil, 1-5 mg/kg s.c., 30 min before and 24 and 48 h after ischemia
Text: In the transient ischemia model in gerbils induced by temporary occlusion of both carotid arteries, the delivery of compounds no.

5-HT1A [1] = assay: Mouse hypothermia test; format: in vivo
Text: All compounds previously characterized in vitro as 5-HT1A agonists (Table 3) were delivered by subcutaneous injection to mice in order to quantify the hypothermia associated to stimulation of this serotonergic receptor subtype.

D2 receptors = molecular target: T3, D2 receptors (Rattus norvegicus, UniProt P61169); assay: Radioligand displacement, D2 receptors, [3H]spiperone; format: binding; settings: rat striatum, read-out: Ki ± E.E. D2
T3 construct: (g) D2 receptors, [^3H]spiperone, rat striatum; from tissue; host or cells: rat striatum

5-HT3 receptors = molecular target: T4, 5-HT3 receptors (Rattus norvegicus, UniProt P35563); assay: Radioligand displacement, 5-HT3 receptors, [3H]LY 278584; format: binding; settings: [3H]LY 278584, rat cerebral cortex; read-out: Ki ± E.E. 5-HT3
T4 construct: (c) 5-HT3 receptors, [^3H]LY 278584, rat cerebral cortex; from tissue; host or cells: rat cerebral cortex
T4 sequence (P35563 24-483): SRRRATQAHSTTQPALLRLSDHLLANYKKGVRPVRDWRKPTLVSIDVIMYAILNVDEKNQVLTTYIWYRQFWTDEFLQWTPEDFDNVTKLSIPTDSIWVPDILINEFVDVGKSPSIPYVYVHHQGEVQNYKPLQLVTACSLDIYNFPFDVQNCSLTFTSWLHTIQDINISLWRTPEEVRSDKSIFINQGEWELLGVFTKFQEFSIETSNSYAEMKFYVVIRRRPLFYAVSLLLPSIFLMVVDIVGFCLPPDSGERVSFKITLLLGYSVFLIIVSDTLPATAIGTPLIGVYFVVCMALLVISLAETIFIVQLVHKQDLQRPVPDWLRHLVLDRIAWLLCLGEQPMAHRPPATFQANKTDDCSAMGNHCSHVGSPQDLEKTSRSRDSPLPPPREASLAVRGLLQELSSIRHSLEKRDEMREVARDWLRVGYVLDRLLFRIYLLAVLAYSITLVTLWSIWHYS

5-HT1A [2] = molecular target: T5, 5-HT1A (Rattus norvegicus, UniProt P19327); assay: Radioligand displacement, 5-HT1A receptors, [3H]-8-OH-DPAT; format: binding; set-up: (a) 5-HT1A receptors, [^3H]-8-OH-DPAT, rat cerebral cortex; from tissue; host or cells: rat cerebral cortex; settings: rat cerebral cortex, read-out: Ki ± E.E. 5-HT1A
T5 sequence (P19327 1-422): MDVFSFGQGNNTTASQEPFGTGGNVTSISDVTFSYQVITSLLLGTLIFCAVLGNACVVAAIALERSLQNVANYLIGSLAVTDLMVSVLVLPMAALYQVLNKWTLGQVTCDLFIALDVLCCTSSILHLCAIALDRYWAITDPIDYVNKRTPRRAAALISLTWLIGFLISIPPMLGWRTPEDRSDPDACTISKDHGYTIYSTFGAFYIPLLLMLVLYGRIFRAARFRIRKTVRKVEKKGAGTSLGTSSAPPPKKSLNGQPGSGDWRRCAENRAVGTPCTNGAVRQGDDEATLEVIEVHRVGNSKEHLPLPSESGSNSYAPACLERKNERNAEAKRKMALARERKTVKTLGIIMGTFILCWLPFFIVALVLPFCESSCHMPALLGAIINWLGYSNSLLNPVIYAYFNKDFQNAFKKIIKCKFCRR

[3] = test system: primary cultures of rat hippocampus; assay: Apoptotic neuronal death induced by serum deprivation; settings: 24 hours without serum; compared with compound no. 1
Protocol: The neuroprotective effect of the compounds considered was studied in experimental models in vitro, using primary cultures of rat hippocampus exposed to serum deprivation, to a toxic concentration of glutamate, or incubated in conditions of hypoxia and absence of glucose.

α1 receptors = assay: Radioligand displacement, α1 receptors, [3H]prazosin; format: binding; settings: rat cerebral cortex, read-out: Ki ± E.E. α1
5-HT4 receptors = molecular target: T6, 5-HT4 receptors (Rattus norvegicus, UniProt Q62758); assay: Radioligand displacement, 5-HT4 receptors, [3H]GR 113808; format: binding; settings: [3H]GR 113808, rat striatum; read-out: Ki ± E.E. 5-HT4
T6 construct: (d) 5-HT4 receptors, [^3H]GR 113808, rat striatum; from tissue; host or cells: rat striatum

5-HT2A receptors = molecular target: T7, 5-HT2A receptors (Rattus norvegicus, UniProt P14842); assay: Radioligand displacement, 5-HT2A receptors, [3H]ketanserin; format: binding; settings: rat cerebral cortex, read-out: Ki ± E.E. 5-HT2A
T7 construct: (b) 5-HT2A receptors, [^3H]ketanserin, rat cerebral cortex; from tissue; host or cells: rat cerebral cortex

[4] = test system: neurons of the hippocampal area CA1; assay: Hyperpolarization of neurons of the hippocampal area CA1; format: cell-based; settings: dose-effect curves

T7 sequence (P14842 whole entry): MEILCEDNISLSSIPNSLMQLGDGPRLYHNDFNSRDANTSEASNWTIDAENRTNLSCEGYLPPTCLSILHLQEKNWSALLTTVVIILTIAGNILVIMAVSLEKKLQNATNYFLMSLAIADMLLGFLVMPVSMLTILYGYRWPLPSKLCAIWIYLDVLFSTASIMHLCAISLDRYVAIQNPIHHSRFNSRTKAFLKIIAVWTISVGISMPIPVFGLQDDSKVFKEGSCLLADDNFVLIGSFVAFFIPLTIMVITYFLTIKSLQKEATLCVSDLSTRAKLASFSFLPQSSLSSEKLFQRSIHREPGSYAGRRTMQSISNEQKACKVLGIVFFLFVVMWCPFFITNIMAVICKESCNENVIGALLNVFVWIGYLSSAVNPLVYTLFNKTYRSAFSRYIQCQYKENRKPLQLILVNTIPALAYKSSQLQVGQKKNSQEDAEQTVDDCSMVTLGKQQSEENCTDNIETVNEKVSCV
T3 sequence (P61169 whole entry): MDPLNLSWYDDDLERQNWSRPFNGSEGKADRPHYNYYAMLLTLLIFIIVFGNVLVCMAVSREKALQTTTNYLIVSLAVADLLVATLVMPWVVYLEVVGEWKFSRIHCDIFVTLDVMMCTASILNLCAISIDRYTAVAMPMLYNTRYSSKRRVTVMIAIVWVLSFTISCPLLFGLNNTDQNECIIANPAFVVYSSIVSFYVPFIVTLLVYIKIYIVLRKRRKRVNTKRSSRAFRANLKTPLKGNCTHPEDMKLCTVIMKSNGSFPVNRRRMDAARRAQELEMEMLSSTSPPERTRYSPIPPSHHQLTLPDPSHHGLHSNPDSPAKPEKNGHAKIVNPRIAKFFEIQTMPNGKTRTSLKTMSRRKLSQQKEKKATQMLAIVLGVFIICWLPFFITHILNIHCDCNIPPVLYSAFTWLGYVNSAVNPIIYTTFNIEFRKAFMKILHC
T6 sequence (Q62758 whole entry): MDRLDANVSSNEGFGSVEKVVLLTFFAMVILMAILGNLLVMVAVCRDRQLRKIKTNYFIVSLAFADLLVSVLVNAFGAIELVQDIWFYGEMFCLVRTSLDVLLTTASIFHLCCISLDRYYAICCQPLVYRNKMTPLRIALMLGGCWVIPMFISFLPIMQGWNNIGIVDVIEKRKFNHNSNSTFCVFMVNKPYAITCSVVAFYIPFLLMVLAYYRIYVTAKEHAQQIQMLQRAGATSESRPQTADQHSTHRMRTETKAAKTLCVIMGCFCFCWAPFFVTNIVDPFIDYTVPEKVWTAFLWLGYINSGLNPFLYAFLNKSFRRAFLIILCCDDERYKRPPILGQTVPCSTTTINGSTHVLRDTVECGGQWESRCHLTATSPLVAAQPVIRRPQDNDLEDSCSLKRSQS
T2 sequence (P32305 whole entry): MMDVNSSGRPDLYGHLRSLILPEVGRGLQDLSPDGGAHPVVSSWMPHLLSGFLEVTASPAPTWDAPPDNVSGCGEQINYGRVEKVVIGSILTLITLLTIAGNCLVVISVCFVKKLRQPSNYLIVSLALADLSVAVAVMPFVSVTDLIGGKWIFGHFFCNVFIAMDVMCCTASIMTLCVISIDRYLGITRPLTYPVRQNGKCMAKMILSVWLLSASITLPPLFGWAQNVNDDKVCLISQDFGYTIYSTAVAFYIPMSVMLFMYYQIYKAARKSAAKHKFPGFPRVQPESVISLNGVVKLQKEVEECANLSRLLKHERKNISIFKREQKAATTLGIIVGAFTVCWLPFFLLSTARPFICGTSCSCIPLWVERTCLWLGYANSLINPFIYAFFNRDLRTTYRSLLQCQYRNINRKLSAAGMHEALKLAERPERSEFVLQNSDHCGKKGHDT

Row | SMILES | EC50 (5-human HT1A receptor) [nM] | % Maximum inhibition (5-human HT1A receptor) [%] | Ki (5-HT7 receptors) [nM] | Prevention of ischemic injury in hippocampal area CA1 (Nissl stain) (hippocampal area CA1) | Minimum effective dosage (5-HT1A [1]; subcutaneous injection, rectal temperature) [mg/kg] | Hypothermic effect (5-HT1A [1]; subcutaneous, at minimum effective dose) [°C] | Ki (D2 receptors) [nM] | Ki (5-HT3 receptors) [nM] | Ki (5-HT1A [2]) [nM] | Neuroprotective effect in serum deprivation [3] | Ki (α1 receptors) [nM] | Ki (5-HT4 receptors) [nM] | Ki (5-HT2A receptors) [nM] | Potency in hyperpolarization test compared with 8-OH-DPAT [4]
1 | O=C1C2CCCN2C(=O)N1CCCCNCCOc1ccccc1 (stereo not drawn) [Compound 12, 2-[4-[2-(Phenoxy)ethylamine]butyl]-1,3-dioxoperhydropyrrolo[1,2-c]imidazol] | 76.2 | 87.4 | > 1000 | significantly prevented the injury | 2.5 | 1.4 | > 1000 | > 1000 | 25.5 ± 0.9 | the degree of protection was somewhat below | > 1000 | > 10000 | > 10000 | 
2 | O=C1C2SCCN2C(=O)N1CCCCNCC1CCc2ccccc2O1 (racemic) [Compound 2, (±)-2-[4-[(Chroman-2-yl)methylamine]butyl]-1,3-dioxoperhydroimidazo[1,5-b]thiazol] | 18.9 | 94.5 |  |  |  |  | > 10000 | > 10000 | 19.9 ± 6 |  |  | > 10000 | > 1000 | indistinguishable in potency to that of the 5-HT1A, 8-OH-DPAT type agonist
